{
  "source": "patent US20120021434A1",
  "about": "“METHOD FOR TREATING B CELL REGULATED AUTOIMMUNE DISORDERS” (Synta Pharmaceuticals Corp., priority 2005, published 2012)",
  "type_in_all_cases": "cell-based",
  "key": {"[1]": {"tested_on": "IL-12 promoter (p40 expression)", "assay": "IL-12 promoter-Luc reporter with ICSBP over-expression", "conditions": "co-transfection of ICSBP construct with IL-12 promoter-Luc reporter", "source_text": "ICSBP, whose expression was reduced by Compound 50, was over-expressed using co-transfection with the IL-12 promoter-Luc report system. The over-expression construct of ICSBP was generated by PCR from cDNA of human PBMC using primers as follow: ICSBP-exp-F: 5′-[…]-3′ (SEQ ID NO:1) and ICSBP-exp-R: 5′-[…]-3′ (SEQ ID NO:2), the resulting PCR products was ligated to pCI vector (Promega)."}, "[2]": {"tested_on": "NF-κB p65", "assay": "Kinetics of p65 nuclear translocation in LPS-stimulated THP1 cells (immunoblot, densitometry)", "conditions": "100 nM", "method": "(§1) Compound 50 impairs nuclear accumulation of c-Rel and slightly reduces nuclear accumulation of p50. We examined the nuclear translocation kinetics of NF-κB family members in LPS stimulated cells treated with Compound 50. THP1 cells were stimulated with LPS in either the presence or absence of 100 nM Compound 50, and the distribution of the NF-κB Rel family members was determined by immunoblotting nuclear (n.p.) extracts collected at 5 min, 15 min, 30 min, 1 h, 3 h and 6 h post-treatment. In response to LPS stimulation, p50 translocated into the nucleus as early as 5 minutes post-stimulation and accumulates as time goes on (FIG. 4, immunoblots and FIG. 5 densitometry). […] The experiment examining p65 nuclear translocation is shown in FIG. 6 (immunoblots) and FIG. 7 (densitometry). In LPS stimulated cells, p65 translocated into the nucleus as early as 5 minutes post-stimulation and accumulated to maximum levels at 15-30 minutes post-stimulation. Treatment of LPS-stimulated cells with Compound 50 had no effect on the kinetics of p65 nuclear entry."}, "[3]": {"tested_on": "IκBα", "assay": "Inducible degradation of IκBα (Western blot and FACS)", "conditions": "IFN-γ/LPS or IFN-γ/SAC, 500 nM, 30 min and 2 hrs", "method": "IκB degradation is one of the steps in the signaling pathway of NF-κB dependent genes. The activity of Compound 50 in inducible degradation of IκBα and IκBβ was investigated in THP-1 cells using Western blot and FACS analysis. […] Similar results were observed from the Compound 50 pre-treatment samples in which Compound 50 was added 30 min before stimulation."}, "[4]": {"tested_on": "purified mouse splenic (CD19+) B cells", "assay": "Primary mouse B cell survival, Annexin V/propidium iodide flow cytometry", "conditions": "24 h; for viability at 0.0001 µM / viability at 0.001 µM / viability at 0.01 µM / viability at 0.1 µM / viability at 1 µM: Mus musculus, B-cell", "method": "Therefore, the effect of Compound 50 on the activation and survival of homogeneous populations of primary B and T lymphocytes has been explored. As a first step in this process, we evaluated the effect of Compound 50 on the survival of purified mouse splenic (CD19^+) B cells. When cultured ex vivo, primary B cells undergo spontaneous apoptosis within 24-48 h in the absence of any survival signals. Examples of such stimuli include those mediated by anti-CD40 (or CD40L), BAFF, or B cell receptor signals provided by either anti-IgM or LPS. Murine primary B cells were isolated from mouse spleen using anti-CD19 coated magnetic beads (Miltenyi Biotec) according to the manufacturer's recommendations. Purified CD19^+ B cells were cultured at 100,000 cells/well in 96-well microtiter plates in culture medium (RPMI 1640 supplemented with 10% fetal bovine serum, 2 mM L-glutamine, 1 mM sodium pyruvate, 20 mM HEPES, and 55 μM β-mercaptoethanol) in the presence of 10 μg/ml anti-CD40, 5 μg/ml LPS or 100 ng/ml BAFF in the presence or absence of Compound 50 for 24 h and measured the frequency of viable and apoptotic cells using Annexin V/propidum iodide flow cytometric analysis. To perform this analysis, cells were washed with PBS and labeled with Annexin V-FITC and propidium iodide (BioVision) according to the manufacturer's instructions. Apoptotic cell (Annexin V-positive) and live cell (Annexin V-negative/propidium iodide-negative) percentages were determined using a flow cytometer."}, "[5]": {"target": "T1, c-Rel (Homo sapiens, UniProt Q04864)", "T1 construct": "a western blot assay of THP1 nuclear c-Rel, p50 and p65 proteins was carried out; endogenous in cells; host or cells: THP-1; Jurkat", "T1 sequence (Q04864 1-619)": "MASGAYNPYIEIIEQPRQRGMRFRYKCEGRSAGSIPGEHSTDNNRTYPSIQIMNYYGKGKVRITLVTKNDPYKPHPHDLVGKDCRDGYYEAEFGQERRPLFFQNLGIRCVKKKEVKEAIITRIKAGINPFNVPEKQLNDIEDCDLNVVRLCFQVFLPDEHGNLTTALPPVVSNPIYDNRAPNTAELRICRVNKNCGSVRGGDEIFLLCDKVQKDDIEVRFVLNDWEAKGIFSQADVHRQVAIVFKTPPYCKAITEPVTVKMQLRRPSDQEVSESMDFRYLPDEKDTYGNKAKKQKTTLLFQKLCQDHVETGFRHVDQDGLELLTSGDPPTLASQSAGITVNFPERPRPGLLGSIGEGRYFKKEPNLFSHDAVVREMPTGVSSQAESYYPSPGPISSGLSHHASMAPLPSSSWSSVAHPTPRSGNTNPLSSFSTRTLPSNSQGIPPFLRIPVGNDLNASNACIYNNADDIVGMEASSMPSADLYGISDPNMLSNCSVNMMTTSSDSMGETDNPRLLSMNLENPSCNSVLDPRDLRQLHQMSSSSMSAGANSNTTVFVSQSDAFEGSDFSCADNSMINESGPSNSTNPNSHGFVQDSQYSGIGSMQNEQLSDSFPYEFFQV", "assay": "Nuclear c-Rel in PMA+ionomycin stimulated Jurkat T cells (immunoblot)", "conditions": "100 nM", "source_text": "We therefore examined the accumulation of nuclear c-Rel in these cells by immunoblot analysis."}, "[6]": {"tested_on": "NF-κB p50", "assay": "Kinetics of p50 nuclear translocation in LPS-stimulated THP1 cells (immunoblot, densitometry)", "conditions": "100 nM", "method": "as §1"}},
  "data": [
    {"molecule": "Cc1cccc(/C=N/Nc2cc(N3CCOCC3)nc(OCCc3ccccn3)n2)c1", "note": "[Compound 50, N-(3-Methyl-benzylidene)-N′-[6-morpholin-4-yl-2-(2-pyridin-2-yl-ethoxy)-pyrimidin-4-yl]-hydrazine]", "values": [
      {"measurement": "inhibition of p40 expression under ICSBP over-expression", "setting": "[1]", "value": "decreased the inhibition"},
      {"measurement": "kinetics of p65 nuclear entry", "setting": "[2]", "value": "no effect"},
      {"measurement": "level of nuclear p65 relative to untreated cells", "setting": "[2]; 6 hours", "value": "small increase"},
      {"measurement": "amount of IκBα in the cytoplasm, with vs without compound", "setting": "[3]", "value": "no significant difference"},
      {"measurement": "% Apoptotic", "setting": "[4]; Anti-CD40 (10 μg/ml), 0.1 nM", "value": 39, "unit": "%"},
      {"measurement": "% Apoptotic", "setting": "[4]; Anti-CD40 (10 μg/ml), 1 nM", "value": 37, "unit": "%"},
      {"measurement": "% Apoptotic", "setting": "[4]; Anti-CD40 (10 μg/ml), 10 nM", "value": 46, "unit": "%"},
      {"measurement": "% Apoptotic", "setting": "[4]; Anti-CD40 (10 μg/ml), 100 nM", "value": 89, "unit": "%"},
      {"measurement": "% Apoptotic", "setting": "[4]; Anti-CD40 (10 μg/ml), 1000 nM", "value": 90, "unit": "%"},
      {"measurement": "% Apoptotic", "setting": "[4]; BAFF (100 ng/ml), 0.1 nM", "value": 40, "unit": "%"},
      {"measurement": "% Apoptotic", "setting": "[4]; BAFF (100 ng/ml), 1 nM", "value": 43, "unit": "%"},
      {"measurement": "% Apoptotic", "setting": "[4]; BAFF (100 ng/ml), 10 nM", "value": 52, "unit": "%"},
      {"measurement": "% Apoptotic", "setting": "[4]; BAFF (100 ng/ml), 100 nM", "value": 92, "unit": "%"},
      {"measurement": "% Apoptotic", "setting": "[4]; BAFF (100 ng/ml), 1000 nM", "value": 93, "unit": "%"},
      {"measurement": "% Apoptotic", "setting": "[4]; LPS (5 μg/ml), 0.1 nM", "value": 31, "unit": "%"},
      {"measurement": "% Apoptotic", "setting": "[4]; LPS (5 μg/ml), 1 nM", "value": 32, "unit": "%"},
      {"measurement": "% Apoptotic", "setting": "[4]; LPS (5 μg/ml), 10 nM", "value": 44, "unit": "%"},
      {"measurement": "% Apoptotic", "setting": "[4]; LPS (5 μg/ml), 100 nM", "value": 79, "unit": "%"},
      {"measurement": "% Apoptotic", "setting": "[4]; LPS (5 μg/ml), 1000 nM", "value": 79, "unit": "%"},
      {"measurement": "viability at 0.0001 µM", "setting": "[4]; Anti-CD40 (10 μg/ml), 0.1 nM", "value": 55, "unit": "%"},
      {"measurement": "viability at 0.001 µM", "setting": "[4]; Anti-CD40 (10 μg/ml), 1 nM", "value": 51, "unit": "%"},
      {"measurement": "viability at 0.01 µM", "setting": "[4]; Anti-CD40 (10 μg/ml), 10 nM", "value": 48, "unit": "%"},
      {"measurement": "viability at 0.1 µM", "setting": "[4]; Anti-CD40 (10 μg/ml), 100 nM", "value": 5, "unit": "%"},
      {"measurement": "viability at 1 µM", "setting": "[4]; Anti-CD40 (10 μg/ml), 1000 nM", "value": 3, "unit": "%"},
      {"measurement": "viability at 0.0001 µM", "setting": "[4]; BAFF (100 ng/ml), 0.1 nM", "value": 55, "unit": "%"},
      {"measurement": "viability at 0.001 µM", "setting": "[4]; BAFF (100 ng/ml), 1 nM", "value": 52, "unit": "%"},
      {"measurement": "viability at 0.01 µM", "setting": "[4]; BAFF (100 ng/ml), 10 nM", "value": 43, "unit": "%"},
      {"measurement": "viability at 0.1 µM", "setting": "[4]; BAFF (100 ng/ml), 100 nM", "value": 4, "unit": "%"},
      {"measurement": "viability at 1 µM", "setting": "[4]; BAFF (100 ng/ml), 1000 nM", "value": 3, "unit": "%"},
      {"measurement": "viability at 0.0001 µM", "setting": "[4]; LPS (5 μg/ml), 0.1 nM", "value": 63, "unit": "%"},
      {"measurement": "viability at 0.001 µM", "setting": "[4]; LPS (5 μg/ml), 1 nM", "value": 63, "unit": "%"},
      {"measurement": "viability at 0.01 µM", "setting": "[4]; LPS (5 μg/ml), 10 nM", "value": 51, "unit": "%"},
      {"measurement": "viability at 0.1 µM", "setting": "[4]; LPS (5 μg/ml), 100 nM", "value": 15, "unit": "%"},
      {"measurement": "viability at 1 µM", "setting": "[4]; LPS (5 μg/ml), 1000 nM", "value": 13, "unit": "%"},
      {"measurement": "B cells apoptotic", "setting": "[4]; concentrations 100 nM, with anti-CD40, LPS or BAFF", "value": "80-90%"},
      {"measurement": "levels of nuclear c-Rel", "setting": "[5]", "value": "reduced"},
      {"measurement": "kinetics of p50 nuclear entry", "setting": "[6]; 5 minutes to 1 hr post-stimulation", "value": "no effect"},
      {"measurement": "nuclear p50 protein levels", "setting": "[6]; 3 hours", "value": "small decrease"}
    ]}
  ]
}
